Assay results: PubChem BioAssay (NCI)
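Results reflect a 48-hour exposure of cells in 96-well plates to compound at five concentrations. Abbreviation: GI50, concentration required for 50% inhibition of growth. TGI denotes the concentration required for complete inhibition of growth.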

Tests used:
Assay in all cases: DTP human tumour cell line panel, 48 h
[1] = tested on: 786-0 renal
[2] = tested on: A498 renal
[3] = tested on: A549 NSCLC
[4] = tested on: ACHN renal
[5] = tested on: BT-549 breast
[6] = tested on: CAKI-1 renal
[7] = tested on: CCRF-CEM leukemia
[8] = tested on: COLO 205 colon
[9] = tested on: DU-145 prostate
[10] = tested on: EKVX NSCLC
[11] = tested on: HCC-2998 colon
[12] = tested on: HCT-116 colon
[13] = tested on: HCT-15 colon
[14] = tested on: HL-60(TB) leukemia
[15] = tested on: HOP-62 NSCLC
[16] = tested on: HOP-92 NSCLC
[17] = tested on: HS 578T breast
[18] = tested on: HT29 colon
[19] = tested on: IGROV1 ovarian
[20] = tested on: K-562 leukemia
[21] = tested on: KM12 colon
[22] = tested on: LOX IMVI melanoma
[23] = tested on: M14 melanoma
[24] = tested on: MALME-3M melanoma
[25] = tested on: MCF7 breast
[26] = tested on: MDA-MB-231 breast
[27] = tested on: MDA-MB-435
[28] = tested on: MOLT-4 leukemia
[29] = tested on: NCI-H23 lung
[30] = tested on: NCI-H460 lung
[31] = tested on: NCI-H522 lung
[32] = tested on: NCI/ADR-RES ovarian
[33] = tested on: OVCAR-3 ovarian
[34] = tested on: OVCAR-4 ovarian
[35] = tested on: OVCAR-5 ovarian
[36] = tested on: OVCAR-8 ovarian
[37] = tested on: PC-3 prostate
[38] = tested on: RPMI-8226 leukemia
[39] = tested on: RXF 393 renal
[40] = tested on: SF-268 CNS
[41] = tested on: SF-295 CNS
[42] = tested on: SF-539 CNS
[43] = tested on: SK-MEL-2 melanoma
[44] = tested on: SK-MEL-28 melanoma
[45] = tested on: SK-MEL-5 melanoma
[46] = tested on: SK-OV-3 ovarian
[47] = tested on: SN12C renal
[48] = tested on: SNB-19 CNS
[49] = tested on: SNB-75 CNS
[50] = tested on: SR leukemia
[51] = tested on: SW-620 colon
[52] = tested on: T-47D breast
[53] = tested on: TK-10 renal
[54] = tested on: U251 CNS
[55] = tested on: UACC-257 melanoma
[56] = tested on: UACC-62 melanoma
[57] = tested on: UO-31 renal
[58] = tested on: NCI-H226 lung

## COc1cc2c(cc1OCCCOc1cc3c(cc1OC)C(=O)N1CC(F)(F)C[C@H]1C=N3)N=C[C@@H]1CC(F)(F)CN1C2=O
[1]
  TGI: 877 nM
[2]
  GI50: 1030 nM
  TGI: 2650 nM
[3]
  GI50: 3790 nM
  TGI: > 100000 nM
[4]
  GI50: 973 nM
  TGI: 13900 nM
[5]
  GI50: 727 nM
  TGI: 3120 nM
[6]
  GI50: 185 nM
  TGI: 708 nM
[7]
  TGI: 1060 nM
[8]
  GI50: 814 nM
  TGI: 2490 nM
[9]
  GI50: 329 nM
  TGI: 2820 nM
[10]
  GI50: 1660 nM
  TGI: 7060 nM
[11]
  GI50: 1370 nM
  TGI: 3450 nM
[12]
  GI50: 415 nM
  TGI: 2250 nM
[13]
  GI50: 10400 nM
  TGI: 50600 nM
[14]
  GI50: 98.4 nM
  TGI: 2000 nM
[15]
  GI50: 206 nM
  TGI: 2590 nM
[16]
  GI50: 336 nM
  TGI: 7730 nM
[17]
  GI50: 3130 nM
  TGI: 15300 nM
[18]
  GI50: 641 nM
  TGI: 13000 nM
[19]
  GI50: 116 nM
  TGI: 2330 nM
[20]
  GI50: 601 nM
  TGI: 4810 nM
[21]
  GI50: 2370 nM
  TGI: 13600 nM
[22]
  GI50: 256 nM
  TGI: 2650 nM
[23]
  GI50: 698 nM
  TGI: 3700 nM
[24]
  GI50: 1270 nM
  TGI: 3190 nM
[25]
  GI50: 195 nM
  TGI: 11400 nM
[26]
  GI50: 1310 nM
  TGI: 6770 nM
[27]
  GI50: 1600 nM
  TGI: 4910 nM
[28]
  GI50: 38.3 nM
  TGI: 1720 nM
[29]
  GI50: 492 nM
  TGI: 9860 nM
[30]
  GI50: 55.1 nM
  TGI: 2450 nM
[31]
  GI50: 228 nM
  TGI: 1030 nM
[32]
  GI50: 21400 nM
  TGI: > 84000 nM
[33]
  GI50: 420 nM
  TGI: 6990 nM
[34]
  GI50: 3450 nM
  TGI: 17400 nM
[35]
  GI50: 1740 nM
  TGI: 8990 nM
[36]
  GI50: 899 nM
  TGI: 9160 nM
[37]
  GI50: 1280 nM
  TGI: 9900 nM
[38]
  GI50: 1640 nM
  TGI: 5790 nM
[39]
  GI50: 1380 nM
  TGI: 2870 nM
[40]
  GI50: 216 nM
  TGI: 17800 nM
[41]
  GI50: 63.5 nM
  TGI: 539 nM
[42]
  GI50: 165 nM
  TGI: 2720 nM
[43]
  GI50: 2320 nM
  TGI: 12800 nM
[44]
  GI50: 1950 nM
  TGI: 5470 nM
[45]
  GI50: 1150 nM
  TGI: 2390 nM
[46]
  GI50: 1020 nM
  TGI: > 30300 nM
[47]
  GI50: 269 nM
  TGI: > 37200 nM
[48]
  GI50: 446 nM
  TGI: 18300 nM
[49]
  GI50: 1580 nM
  TGI: 18400 nM
[50]
  GI50: < 26.1 nM
  TGI: 508 nM
[51]
  GI50: 469 nM
  TGI: 4030 nM
[52]
  GI50: 344 nM
  TGI: 5120 nM
[53]
  GI50: 3560 nM
  TGI: 12500 nM
[54]
  GI50: 166 nM
  TGI: 11400 nM
[55]
  GI50: 2000 nM
  TGI: 5460 nM
[56]
  GI50: 365 nM
  TGI: 1820 nM
[57]
  GI50: 1240 nM
  TGI: > 33100 nM

## COc1ccc2c(c1)C(=O)c1c-2n(CCCCl)c(=O)c2cc([N+](=O)[O-])ccc12
[1]
  TGI: 159 nM
[2]
  GI50: 1390 nM
[3]
  GI50: 196 nM
  TGI: > 100000 nM
[4]
  GI50: < 10 nM
[5]
  GI50: 1560 nM
  TGI: > 100000 nM
[6]
  GI50: 242 nM
  TGI: 959 nM
[7]
  GI50: < 10 nM
  TGI: 212 nM
[8]
  GI50: 902 nM
  TGI: > 100000 nM
[9]
  GI50: 36.1 nM
  TGI: > 100000 nM
[10]
  GI50: 30800 nM
  TGI: > 100000 nM
[11]
  GI50: 996 nM
  TGI: > 28600 nM
[12]
  TGI: 737 nM
[13]
  GI50: 57.5 nM
  TGI: > 100000 nM
[14]
  GI50: < 37 nM
  TGI: 147 nM
[17]
  GI50: > 68900 nM
  TGI: > 100000 nM
[18]
  GI50: 91.7 nM
  TGI: > 100000 nM
[19]
  GI50: 58.5 nM
  TGI: 6570 nM
[20]
  TGI: > 100000 nM
[21]
  GI50: 271 nM
[22]
  GI50: < 10 nM
  TGI: 111 nM
[23]
  TGI: 361 nM
[24]
  GI50: 53.3 nM
  TGI: 461 nM
[25]
  GI50: < 10 nM
[26]
  TGI: > 46000 nM
[27]
  GI50: 985 nM
  TGI: 9220 nM
[28]
  GI50: < 21.1 nM
[58]
  GI50: < 10 nM
  TGI: > 100000 nM
[29]
  GI50: 107 nM
[30]
  GI50: < 17.8 nM
[31]
  GI50: < 26.5 nM
  TGI: 963 nM
[32]
  GI50: 81.5 nM
[33]
  GI50: 1320 nM
  TGI: 14000 nM
[34]
  GI50: 224 nM
  TGI: 33600 nM
[35]
  GI50: 1260 nM
  TGI: > 26400 nM
[36]
  GI50: 289 nM
  TGI: > 100000 nM
[37]
  GI50: 1680 nM
  TGI: > 100000 nM
[38]
  GI50: 75 nM
  TGI: 1600 nM
[39]
  GI50: 1580 nM
  TGI: > 100000 nM
[40]
  GI50: < 26.2 nM
[41]
  GI50: < 10 nM
  TGI: 210 nM
[42]
  GI50: 110 nM
  TGI: 456 nM
[43]
  GI50: 3560 nM
  TGI: > 95600 nM
[44]
  GI50: 2640 nM
  TGI: > 100000 nM
[45]
  GI50: 498 nM
  TGI: 2070 nM
[46]
  GI50: 569 nM
  TGI: > 100000 nM
[47]
  TGI: > 20300 nM
[48]
  GI50: < 50.5 nM
  TGI: > 100000 nM
[49]
  TGI: > 100000 nM
[50]
  GI50: < 12.5 nM
[51]
  GI50: 123 nM
[52]
  TGI: > 100000 nM
[53]
  GI50: 639 nM
[54]
  GI50: < 10 nM
  TGI: 476 nM
[55]
  GI50: 1590 nM
  TGI: 98500 nM
[56]
  TGI: 1810 nM
